Data reported in ChEMBL document CHEMBL1147336, “A new antibacterial sesquiterpene from Premna oligotricha” (1993).
Converted amounts (≈) assume the structure as drawn. The source made the active and inactive calls. The rule behind the calls is not given here.

Experiments:
Bacillus pumilus = assay: Antibacterial activity against Bacillus pumilus NCTC 10327; assay type: functional
Bacillus subtilis = assay: Antibacterial activity against Bacillus subtilis NCTC 10452; assay type: functional
Staphylococcus aureus = assay: Antibacterial activity against Staphylococcus aureus NCTC 6571; assay type: functional
Enterococcus faecalis = assay: Antibacterial activity against Streptococcus faecalis NCTC 775; assay type: functional
Escherichia coli = assay: Antibacterial activity against Escherichia coli NCTC 9001 at 200 ug/ml; assay type: functional, organism-based
Pseudomonas aeruginosa = assay: Antibacterial activity against Pseudomonas aeruginosa NCTC 6750 at 200 ug/ml; assay type: functional, organism-based

| MIC (Bacillus pumilus) [µg/mL] | MIC (Bacillus subtilis) [µg/mL] | MIC (Staphylococcus aureus) [µg/mL] | MIC (Enterococcus faecalis) [µg/mL] | Compound | Activity (Escherichia coli) | Activity (Pseudomonas aeruginosa) |
| --- | --- | --- | --- | --- | --- | --- |
| 0.94 | 3.75 | 3.75 | 15 | CN[C@@H]1[C@H](O[C@H]2[C@H](O[C@H]3[C@H](O)[C@@H](O)[C@H](N=C(N)N)[C@@H](O)[C@@H]3N=C(N)N)O[C@@H](C)[C@]2(O)C=O)O[C@@H](CO)[C@H](O)[C@H]1O.CN[C@@H]1[C@H](O[C@H]2[C@H](O[C@H]3[C@H](O)[C@@H](O)[C@H](N=C(N)N)[C@@H](O)[C@@H]3N=C(N)N)O[C@@H](C)[C@]2(O)C=O)O[C@@H](CO)[C@H](O)[C@H]1O.O=S(=O)(O)O.O=S(=O)(O)O.O=S(=O)(O)O [STREPTOMYCIN SULFATE] |  |  |
| 50 (≈ 210 µM) | 100 (≈ 420 µM) | 50 (≈ 210 µM) | 150 (≈ 629 µM) | C=C(CC[C@@H]1C(C)(C)CCC[C@]1(C)O)C(C)=O | inactive | inactive |
